The values below come from patent US9302988B2, “Fluoromethyl-substituted pyrrole carboxamides” (GRÜNENTHAL GMBH, priority 2012, dated 2016).

SMILES strings stand for the structures. A value given as a limit tells only on which side of the number the result lay.

T1 sequence (Q00975 whole entry): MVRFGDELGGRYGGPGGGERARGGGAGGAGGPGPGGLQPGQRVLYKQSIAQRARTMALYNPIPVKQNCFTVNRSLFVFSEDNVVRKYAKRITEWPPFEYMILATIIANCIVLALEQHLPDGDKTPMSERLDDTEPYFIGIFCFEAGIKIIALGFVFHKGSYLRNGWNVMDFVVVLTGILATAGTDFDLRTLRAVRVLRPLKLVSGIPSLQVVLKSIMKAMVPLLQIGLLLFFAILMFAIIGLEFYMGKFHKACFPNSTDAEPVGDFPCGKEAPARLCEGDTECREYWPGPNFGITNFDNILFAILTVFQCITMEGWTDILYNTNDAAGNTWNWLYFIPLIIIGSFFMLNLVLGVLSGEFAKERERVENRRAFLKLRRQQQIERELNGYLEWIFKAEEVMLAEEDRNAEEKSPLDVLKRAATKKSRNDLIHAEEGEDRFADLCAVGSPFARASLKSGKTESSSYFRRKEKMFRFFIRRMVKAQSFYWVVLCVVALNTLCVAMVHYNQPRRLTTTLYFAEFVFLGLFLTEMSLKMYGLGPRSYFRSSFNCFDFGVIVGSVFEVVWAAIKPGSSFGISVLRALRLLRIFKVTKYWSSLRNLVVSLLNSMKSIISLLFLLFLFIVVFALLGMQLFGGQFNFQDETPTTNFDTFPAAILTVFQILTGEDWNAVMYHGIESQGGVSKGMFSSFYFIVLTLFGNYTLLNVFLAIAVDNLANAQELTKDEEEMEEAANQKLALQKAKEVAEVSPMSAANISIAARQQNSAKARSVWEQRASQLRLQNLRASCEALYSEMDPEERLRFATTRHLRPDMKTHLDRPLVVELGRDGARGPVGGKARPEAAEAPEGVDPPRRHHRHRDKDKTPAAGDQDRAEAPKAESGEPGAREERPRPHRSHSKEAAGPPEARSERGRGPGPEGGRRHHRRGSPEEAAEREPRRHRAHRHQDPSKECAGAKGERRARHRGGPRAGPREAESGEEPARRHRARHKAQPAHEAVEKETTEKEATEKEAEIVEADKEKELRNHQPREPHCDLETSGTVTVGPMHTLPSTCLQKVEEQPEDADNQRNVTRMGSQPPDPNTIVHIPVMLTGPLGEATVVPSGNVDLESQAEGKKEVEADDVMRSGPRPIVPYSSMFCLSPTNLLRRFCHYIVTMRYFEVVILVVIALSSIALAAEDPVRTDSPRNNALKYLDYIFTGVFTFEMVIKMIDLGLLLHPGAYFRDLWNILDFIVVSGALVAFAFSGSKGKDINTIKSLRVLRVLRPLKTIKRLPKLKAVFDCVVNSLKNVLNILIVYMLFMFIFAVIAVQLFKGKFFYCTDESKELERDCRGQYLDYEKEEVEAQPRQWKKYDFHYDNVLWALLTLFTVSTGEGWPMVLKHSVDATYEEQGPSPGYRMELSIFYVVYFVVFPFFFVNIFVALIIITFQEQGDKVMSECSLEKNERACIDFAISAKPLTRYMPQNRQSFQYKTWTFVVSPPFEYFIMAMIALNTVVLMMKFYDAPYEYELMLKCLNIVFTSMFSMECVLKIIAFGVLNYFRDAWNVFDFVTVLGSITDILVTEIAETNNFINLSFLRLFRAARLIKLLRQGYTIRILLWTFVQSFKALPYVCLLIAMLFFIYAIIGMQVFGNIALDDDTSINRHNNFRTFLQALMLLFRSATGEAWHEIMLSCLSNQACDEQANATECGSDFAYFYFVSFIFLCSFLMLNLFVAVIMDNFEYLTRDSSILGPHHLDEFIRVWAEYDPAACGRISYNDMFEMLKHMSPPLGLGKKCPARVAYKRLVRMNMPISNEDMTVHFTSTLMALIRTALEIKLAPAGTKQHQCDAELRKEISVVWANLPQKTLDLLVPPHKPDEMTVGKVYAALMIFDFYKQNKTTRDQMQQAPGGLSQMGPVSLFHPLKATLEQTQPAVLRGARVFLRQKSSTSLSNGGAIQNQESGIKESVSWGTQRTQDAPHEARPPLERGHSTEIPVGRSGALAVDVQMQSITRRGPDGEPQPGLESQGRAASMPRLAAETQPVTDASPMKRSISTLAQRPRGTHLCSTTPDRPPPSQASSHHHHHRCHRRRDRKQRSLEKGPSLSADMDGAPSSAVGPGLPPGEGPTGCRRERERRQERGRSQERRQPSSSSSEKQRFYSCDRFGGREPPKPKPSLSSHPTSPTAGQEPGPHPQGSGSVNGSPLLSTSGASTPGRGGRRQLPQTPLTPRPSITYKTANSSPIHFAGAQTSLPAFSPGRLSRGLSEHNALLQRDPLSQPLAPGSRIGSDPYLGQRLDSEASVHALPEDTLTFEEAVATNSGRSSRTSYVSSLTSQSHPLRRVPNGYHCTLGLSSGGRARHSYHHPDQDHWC
T1 sequence (P54289 25-1103, further chain): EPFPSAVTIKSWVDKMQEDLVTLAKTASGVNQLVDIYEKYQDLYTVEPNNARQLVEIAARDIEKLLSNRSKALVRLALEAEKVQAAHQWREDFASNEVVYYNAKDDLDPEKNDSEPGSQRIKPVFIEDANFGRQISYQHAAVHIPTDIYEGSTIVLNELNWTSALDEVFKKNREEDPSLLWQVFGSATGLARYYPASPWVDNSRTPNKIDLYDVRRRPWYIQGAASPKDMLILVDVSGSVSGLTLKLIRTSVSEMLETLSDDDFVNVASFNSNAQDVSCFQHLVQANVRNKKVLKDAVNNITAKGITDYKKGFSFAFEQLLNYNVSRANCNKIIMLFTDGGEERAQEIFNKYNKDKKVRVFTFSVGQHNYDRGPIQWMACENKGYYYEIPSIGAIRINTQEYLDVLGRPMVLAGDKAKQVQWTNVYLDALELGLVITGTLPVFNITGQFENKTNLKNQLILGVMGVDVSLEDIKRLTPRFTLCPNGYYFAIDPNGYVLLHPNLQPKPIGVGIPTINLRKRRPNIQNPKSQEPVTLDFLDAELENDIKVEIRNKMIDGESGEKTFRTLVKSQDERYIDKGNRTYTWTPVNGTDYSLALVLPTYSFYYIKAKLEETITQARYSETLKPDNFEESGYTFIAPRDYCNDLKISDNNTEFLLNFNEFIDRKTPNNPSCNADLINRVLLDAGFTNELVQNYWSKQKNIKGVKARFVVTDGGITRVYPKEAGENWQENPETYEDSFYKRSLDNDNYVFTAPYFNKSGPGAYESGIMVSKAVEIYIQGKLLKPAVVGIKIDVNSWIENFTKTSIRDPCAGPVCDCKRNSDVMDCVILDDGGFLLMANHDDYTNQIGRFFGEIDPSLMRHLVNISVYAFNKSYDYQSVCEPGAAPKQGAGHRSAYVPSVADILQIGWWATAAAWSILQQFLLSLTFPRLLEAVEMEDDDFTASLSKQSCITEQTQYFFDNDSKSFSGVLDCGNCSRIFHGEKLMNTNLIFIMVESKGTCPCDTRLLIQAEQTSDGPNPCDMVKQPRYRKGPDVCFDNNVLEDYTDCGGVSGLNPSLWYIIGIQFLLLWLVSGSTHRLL
T1 sequence (P54284 whole entry, further chain): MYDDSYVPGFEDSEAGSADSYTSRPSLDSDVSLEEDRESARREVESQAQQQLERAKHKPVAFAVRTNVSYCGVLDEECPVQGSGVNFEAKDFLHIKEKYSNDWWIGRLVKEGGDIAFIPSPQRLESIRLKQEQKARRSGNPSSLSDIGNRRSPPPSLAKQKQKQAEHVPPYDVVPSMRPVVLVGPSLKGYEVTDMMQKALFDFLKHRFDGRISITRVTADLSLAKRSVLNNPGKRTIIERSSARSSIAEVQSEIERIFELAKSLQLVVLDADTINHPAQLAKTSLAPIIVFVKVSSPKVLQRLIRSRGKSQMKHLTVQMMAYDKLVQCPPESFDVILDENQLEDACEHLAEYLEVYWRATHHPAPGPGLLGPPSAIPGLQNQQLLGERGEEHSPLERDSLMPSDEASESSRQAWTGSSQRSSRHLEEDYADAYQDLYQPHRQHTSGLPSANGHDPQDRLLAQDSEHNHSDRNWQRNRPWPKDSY

This experiment addresses T1, Human CaV2.2 channels (Homo sapiens, UniProt Q00975).
T1 construct: expressed in transfected cells
Put plainly: Fluorescent assay for CaV2.2 channels using potassium depolarization to induce channel opening (FLIPR, Fluo-4). Format: cell-based. Particulars: 3 μM test compound, 30 mM KCl, HEK293 cells stably expressing human CaV2.2; read-out: %-Inhib (CaV2.2) @3 μM @30 mM KCl. The text has this:
In the process, the Ca^2+ influx is quantified in the FLIPR assay with the aid of a Ca^2+-sensitive dye (type Fluo-4, Molecular Probes Europe BV, Leiden, the Netherlands) in a fluorescent imaging plate reader (FLIPR 3, Molecular Devices, Sunnyvale, USA), as described hereinafter.
2.1 Fluorescent Assay for CaV2.2 Channels Using Potassium Depolarization to Induce Channel Opening
Human CaV2.2 channels were stably expressed in HEK293 cells together with alpha2-delta and beta subunits of voltage gated calcium channels. In addition, an inwardly rectifying potassium channel (Kir2.3) was stably expressed in these cells to augment control of the cell membrane potential by the concentration of extracellular potassium ions. Raise of the extracellular potassium concentration leads to depolarization of the membrane potential and thus regulates the voltage dependent state of CaV2.2 channels. For preparation, cells were seeded in black poly-D-lysine coated 96-well plates (Becton Dickinson, Biocoat 4640) in 100 μl medium [500 ml DMEM/F-12 plus Glutamax (Invitrogen 31331-093) plus 5.5 ml MEM NEAA 100× (Invitrogen 11140-035) plus 50 ml FBS decomplemented (Invitrogen 10270-106) plus 4.4 ml Geneticin (Invitrogen 10131-027) plus 1.1 ml Hygromycin B (Invitrogen 10687-010) plus 68.75 μl Puromycin (Clontech, 631306)] at a cell density of 45.000 cells per well.
Plates were incubated at 37° C. (5% CO2) for 20 to 23 hours. On the day of experiment medium was discarded and cells were loaded with Fluo 4 by addition of 100 μl of basic assay buffer (10 mM HEPES, 30 mM KCl, 120 mM NaCl, 0.8 mM CaCl2, 1.7 mM MgCl2, 10 mM Glucose, 0.1% BSA. pH 7.4) containing 2 μM Fluo 4 (Molecular Probes; F-14201), 0.01% pluronic acid (Molecular Probes; P-6866) and 2.5 mM probenecid (Molecular Probes; P36400). Cells were incubated in the dark at 25° C. for 60 min. Then the dye containing buffer was discarded and 100 μl basic assay buffer was added. Subsequently cells were incubated in the dark at 25° C. for 15 min. 25 μl of basic assay buffer with or without test compound were added and cells were incubated again in the dark at 25° C. for 15 min. Fluorescence intensity was measured on a FLIPR 3 instrument (Molecular Devices Corp., Sunnyvale, Calif.) with excitation at 480 nm and emission at 535 nm. After continuously reading fluorescence for 30 sec, 50 μl of basic assay buffer containing 210 mM KCl (NaCl omitted) were added for depolarization. Peak fluorescent signal intensity was determined and the amplitude of the peak signal, normalized to base line, was used to measure channel inhibition by test compounds.
On to `O=C(c1c(-c2ccc(Cl)cc2)cc(C(F)(F)F)n1Cc1ccccc1)N1CCOCC1` [SC-01, [1-Benzyl-3-(4-chlorophenyl)-5-(trifluoromethyl)-1H-pyrrol-2-yl]-morpholin-4-yl-methanone], for which the inhibition at 3 µM is greater than 95%.
For `CN(CC(C)(C)C)C(=O)c1c(-c2ccc(Cl)cc2)cc(C(F)(F)F)n1Cc1ccccc1` [SC-02, 1-Benzyl-3-(4-chlorophenyl)-N-(2,2-dimethyl-propyl)-N-methyl-5-(trifluoromethyl)-1H-pyrrole-2-carboxylic acid amide] the value was 75 to 95%; for `Cc1c(-c2ccc(Cl)cc2)c(C(=O)N2CCOCC2)n(Cc2ccccc2)c1C(F)(F)F` [SC-03, [1-Benzyl-3-(4-chlorophenyl)-4-methyl-5-(trifluoromethyl)-1H-pyrrol-2-yl]-morpholin-4-yl-methanone], greater than 95%; for `Cc1c(-c2ccc(Cl)cc2)c(C(=O)N(C)CC(C)(C)C)n(Cc2ccccc2)c1C(F)(F)F` [SC-04, 1-Benzyl-3-(4-chlorophenyl)-N-(2,2-dimethyl-propyl)-N,4-dimethyl-5-(trifluoromethyl)-1 H-pyrrole-2-carboxylic acid amide], 75 to 95%.
For `Cc1c(-c2ccc(Cl)cc2)c(C(=O)N2CC(O)C2)n(Cc2ccccc2)c1C(F)(F)F` [SC-05, [1-Benzyl-3-(4-chlorophenyl)-4-methyl-5-(trifluoromethyl)-1H-pyrrol-2-yl]-(3-hydroxy-azetidin-1-yl)-methanone], the inhibition at 3 µM lay in the range of 75 to 95%.
For the molecule `Cc1c(-c2ccc(Cl)cc2)c(C(=O)N(C)CCS(C)(=O)=O)n(Cc2ccccc2)c1C(F)(F)F` [SC-06, 1-Benzyl-3-(4-chlorophenyl)-N,4-dimethyl-N-(2-methylsulfonyl-ethyl)-5-(trifluoromethyl)-1H-pyrrole-2-carboxylic acid amide], the inhibition at 3 µM was greater than 95%.
For `Cc1c(-c2ccc(Cl)cc2)c(C(=O)N2CCNC(=O)C2)n(Cc2ccccc2)c1C(F)(F)F` [SC-08, 4-[1-Benzyl-3-(4-chlorophenyl)-4-methyl-5-(trifluoromethyl)-1H-pyrrole-2-carbonyl]-piperazin-2-one], the inhibition at 3 µM was in the range of 75 to 95%.
As to `Cc1c(-c2ccc(Cl)cc2)c(C(=O)N2CCN(C)C(=O)C2)n(Cc2ccccc2)c1C(F)(F)F` [SC-09, 4-[1-Benzyl-3-(4-chlorophenyl)-4-methyl-5-(trifluoromethyl)-1H-pyrrole-2-carbonyl]-1-methyl-piperazin-2-one], the inhibition at 3 µM lay in the range of 75 to 95%.
Turning to `Cc1c(-c2ccc(Cl)cc2)c(C(=O)NC2CCOCC2)n(Cc2ccccc2)c1C(F)(F)F` [SC-10, 1-Benzyl-3-(4-chlorophenyl)-4-methyl-N-tetrahydro-pyran-4-yl-5-(trifluoromethyl)-1H-pyrrole-2-carboxylic acid amide], the inhibition at 3 µM is 75 to 95%.
Regarding `Cc1c(-c2ccc(Cl)cc2)c(C(=O)N(C)C2CCOCC2)n(Cc2ccccc2)c1C(F)(F)F` [SC-11, 1-Benzyl-3-(4-chlorophenyl)-N,4-dimethyl-N-tetrahydro-pyran-4-yl-5-(trifluoromethyl)-1H-pyrrole-2-carboxylic acid amide], the inhibition at 3 µM is greater than 95%.
For `Cc1c(-c2ccc(Cl)cc2)c(C(=O)NC2(CO)CC2)n(Cc2ccccc2)c1C(F)(F)F` [SC-16, 1-Benzyl-3-(4-chlorophenyl)-N-[1-(hydroxymethyl)-cyclopropyl]-4-methyl-5-(trifluoromethyl)-1H-pyrrole-2-carboxylic acid amide] the value was 75 to 95%; for `Cc1c(-c2ccc(Cl)cc2)c(C(=O)N2CCC(O)CC2)n(Cc2ccccc2)c1C(F)(F)F` [SC-17, [1-Benzyl-3-(4-chlorophenyl)-4-methyl-5-(trifluoromethyl)-1H-pyrrol-2-yl]-(4-hydroxy-piperidin-1-yl)-methanone], greater than 95%.
In the case of `Cc1c(-c2ccc(Cl)cc2)c(C(=O)N(C)C)n(Cc2ccccc2)c1C(F)(F)F` [SC-18, 1-Benzyl-3-(4-chlorophenyl)-N,N,4-trimethyl-5-(trifluoromethyl)-1H-pyrrole-2-carboxylic acid amide], the inhibition at 3 µM is 75 to 95%.
As for `Cc1c(-c2ccc(Cl)cc2)c(C(=O)N2CC[S+]([O-])CC2)n(Cc2ccccc2)c1C(F)(F)F` [SC-19, [1-Benzyl-3-(4-chlorophenyl)-4-methyl-5-(trifluoromethyl)-1H-pyrrol-2-yl]-(1-oxo-[1,4]thiazinan-4-yl)-methanone], the inhibition at 3 µM is greater than 95%.
Take `Cc1c(-c2ccc(Cl)cc2)c(C(=O)N2CCOC(CO)C2)n(Cc2ccccc2)c1C(F)(F)F` (centres unmarked) [SC-20, [1-Benzyl-3-(4-chlorophenyl)-4-methyl-5-(trifluoromethyl)-1H-pyrrol-2-yl]-[2-(hydroxymethyl)-morpholin-4-yl]-methanone]: the inhibition at 3 µM lay in the range of 75 to 95%.
As to `Cc1c(-c2ccc(Cl)cc2)c(C(=O)N(C)CC2CCOCC2)n(Cc2ccccc2)c1C(F)(F)F` [SC-21, 1-Benzyl-3-(4-chlorophenyl)-N,4-dimethyl-N-(tetrahydro-pyran-4-yl-methyl)-5-(trifluoromethyl)-1H-pyrrole-2-carboxylic acid amide], the inhibition at 3 µM is greater than 95%.
For `CNC(=O)c1c(-c2ccc(Cl)cc2)c(C)c(C(F)(F)F)n1Cc1ccccc1` [SC-22, 1-Benzyl-3-(4-chlorophenyl)-N,4-dimethyl-5-(trifluoromethyl)-1H-pyrrole-2-carboxylic acid amide] the value was 75 to 95%.
For `Cc1c(-c2ccc(Cl)cc2)c(C(=O)N2CCC(O)C2)n(Cc2ccccc2)c1C(F)(F)F` (centres unmarked) [SC-23, [1-Benzyl-3-(4-chlorophenyl)-4-methyl-5-(trifluoromethyl)-1H-pyrrol-2-yl]-(3-hydroxy-pyrrolidin-1-yl)-methanone], the inhibition at 3 µM lay within 75 to 95%.
Next, `Cc1c(-c2ccc(Cl)cc2)c(C(=O)N(C)CCO)n(Cc2ccccc2)c1C(F)(F)F` [SC-24, 1-Benzyl-3-(4-chlorophenyl)-N-(2-hydroxy-ethyl)-N,4-dimethyl-5-(trifluoromethyl)-1H-pyrrole-2-carboxylic acid amide]: greater than 95%; `Cc1c(-c2ccc(Cl)cc2)c(C(=O)N2CCOCC2)n(Cc2cccc(Cl)c2)c1C(F)(F)F` [SC-25, [3-(4-Chlorophenyl)-1-[(3-chlorophenyl)-methyl]-4-methyl-5-(trifluoromethyl)-1H-pyrrol-2-yl]-morpholin-4-yl-methanone]: 75 to 95%.
For `Cc1c(-c2ccc(Cl)cc2)c(C(=O)N2CCS(=O)(=O)CC2)n(Cc2ccccc2)c1C(F)(F)F` [SC-26, [1-Benzyl-3-(4-chlorophenyl)-4-methyl-5-(trifluoromethyl)-1H-pyrrol-2-yl]-(1,1-dioxo-[1,4]thiazinan-4-yl)-methanone] the value was 75 to 95%; for `Cc1c(-c2ccc(Cl)cc2)c(C(=O)N2CCNC(C)(C)C2)n(Cc2ccccc2)c1C(F)(F)F` [SC-29, [1-Benzyl-3-(4-chlorophenyl)-4-methyl-5-(trifluoromethyl)-1H-pyrrol-2-yl]-(3,3-dimethyl-piperazin-1-yl)-methanone], greater than 95%.
With `COc1cccc(-n2c(C(=O)N3CC(F)(F)C3)c(-c3ccc(Cl)cc3)c(C)c2C(F)(F)F)c1` [SC-32, [3-(4-Chlorophenyl)-1-(3-methoxyphenyl)-4-methyl-5-(trifluoromethyl)-1H-pyrrol-2-yl]-(3,3-difluoro-azetidin-1-yl)-methanone], the inhibition at 3 µM was 75 to 95%.
As to `Cc1c(-c2ccc(Cl)cc2)c(C(=O)N2CC(F)(F)C2)n(-c2cccc(Cl)c2)c1C(F)(F)F` [SC-33, [1-(3-Chlorophenyl)-3-(4-chlorophenyl)-4-methyl-5-(trifluoromethyl)-1H-pyrrol-2-yl]-(3,3-difluoro-azetidin-1-yl)-methanone], the inhibition at 3 µM was in the range of 75 to 95%.
With `Cc1c(-c2ccc(Cl)cc2)c(C(=O)N(C)C2CC2)n(Cc2ccccc2)c1C(F)(F)F` [SC-34, 1-Benzyl-3-(4-chlorophenyl)-N-cyclopropyl-N,4-dimethyl-5-(trifluoromethyl)-1H-pyrrole-2-carboxylic acid amide], the inhibition at 3 µM is greater than 95%.
As to `Cc1c(-c2ccc(Cl)cc2)c(C(=O)NC2CC2)n(Cc2ccccc2)c1C(F)(F)F` [SC-35, 1-Benzyl-3-(4-chlorophenyl)-N-cyclopropyl-4-methyl-5-(trifluoromethyl)-1H-pyrrole-2-carboxylic acid amide], the inhibition at 3 µM lay in the range of 75 to 95%.
